Data published in PubChem BioAssay AID504860 (Southern Research Specialized Biocontainment Screening …, 2011).
Calls of active or inactive are those of the source. How the calls were made is not given here.

Assays:
[1] = tested on: M. tuberculosis H37Rv growth inhibition, glycerol-free medium; test: confirmation, H37Rv, purified and synthesized compounds, set 4 (AID 504860); conditions: for IC50: measured here: growth inhibition IC50
[2] = as above; conditions: M. tuberculosis H37Rv growth inhibition, glycerol-free medium; at 100 µM (top of the series)

SMILES | IC90 [1] [µM] | IC50 [1] [µM] | inhibition [2]
Cc1cccc(/C=C/C(=O)c2ccc([N+](=O)[O-])o2)c1 | 2.22 | 1.46 | –
CCOc1ccc(-c2cc(C)[n+](CCc3ccc(OC)c(OC)c3)c(-c3ccc(OCC)cc3)c2)cc1 | 1.63 | 1.01 | –
Cc1cc(C)n2nc(N)c(N=Nc3ccccc3)c2n1 | 6.75 | 4.45 | –
Nc1c(C(=O)NC2CCCCC2)nsc1C(=O)OCC(=O)NC1CCCCC1 | 8.13 | 4.25 | –
COC(=O)C(C)Oc1ccc(Cc2ncc(C(F)(F)F)cc2Cl)cc1 (stereo not drawn) | 5.63 | 3.62 | –
COc1cccc(NC(=O)CSc2nc3c(c(=O)[nH]2)CCC3)c1 | – | – | -4.12% (inactive)
Cc1[nH]c(=S)[nH]c(=O)c1C | – | – | 6.28% (inactive)
O=C(CSc1nc2ccccc2c(=O)[nH]1)NCc1ccc(Cl)cc1 | 1.58 | 1.07 | –
CCC(Sc1nc2c(c(=O)[nH]1)CCC2)C(=O)Nc1cccc(OC)c1 (stereo not drawn) | – | – | -0.78% (inactive)
O=C(CSc1nc2ccccc2c(=O)[nH]1)NC1CCCCC1 | 0.52 | 0.31 | –
Cc1c[nH]c(=S)[nH]c1=O | – | – | 2.03% (inactive)
O=c1[nH]c(=S)[nH]c2ccccc12 | – | – | 2.16% (inactive)
CCSc1nc(C)c(C)c(=O)[nH]1 | – | – | 2.48% (inactive)
CN1CCC(NC(=O)CSc2nc3ccccc3c(=O)[nH]2)CC1 | – | – | 8.01% (inactive)
CC(C)CCNC(=O)CSc1nc2c(c(=O)[nH]1)CCC2 | 2.69 | 1.68 | –
CCOC(=O)CSc1nc(C)c(C)c(=O)[nH]1 | – | – | 8.77% (inactive)
O=C(CSc1nc2ccccc2c(=O)[nH]1)NC1CCCC1 | 0.85 | 0.43 | –
Cc1nc(SCC(=O)NC2CCCC2)[nH]c(=O)c1C | 15.6 | 9.11 | –
CN(C(=O)CSc1nc2ccccc2c(=O)[nH]1)C1CCCCC1 | – | – | 9.68% (inactive)
O=C(CSc1nccc(=O)[nH]1)NC1CCCCC1 | – | – | 7.67% (inactive)

SMILES | IC90 [1] [µM] | IC50 [1] [µM] | inhibition [2]
CC1CCN(C(=O)C2CCN(c3nnc(-n4cccc4)s3)CC2)CC1 | 7.33 | 3.2 | –
Cc1nc(SCC(N)=O)[nH]c(=O)c1C | – | – | 4.67% (inactive)
COc1ccc(NC(=O)CSc2nc3ccccc3c(=O)[nH]2)cc1 | – | – | 11.4% (inactive)
Cc1cccc(-c2oc3ccc(-c4ccc5c(c4)OCO5)cc3c2C#Cc2cncn2C)c1 | 3.08 | 2.5 | –
Cc1[nH]c2ccccc2c1C(=O)COC(=O)c1ccc([N+](=O)[O-])s1 | 5.21 | 2.53 | –
CCOC1OC(=O)C(Cl)=C1Nc1ccccc1C (stereo not drawn) | 9.47 | 3.2 | –
O=C(CSc1ccccn1)NC1CCCCC1 | – | – | 6.13% (inactive)
Cc1cc(Br)ccc1NC(=O)c1cnc(N2CCN(c3ccccn3)CC2)c2ccccc12 | – | 11.4 | –
Cn1c(SCC(=O)NC2CCCCC2)nc2ccccc2c1=O | – | – | 6.07% (inactive)
O=C(CSc1nc2ccccc2c(=O)[nH]1)N1CCOCC1 | – | – | 11.1% (inactive)
COC(=O)C(Nc1nc(SCC(=O)NC2CCCCC2)nc2ccccc12)c1ccccc1 (stereo not drawn) | – | – | 5.93% (inactive)
O=C(CSc1nc2c(c(=O)[nH]1)CCCC2)NC1CCCCC1 | < 0.01 | < 0.01 | –
CCC(Sc1nc2ccccc2c(=O)[nH]1)C(=O)Nc1cccc(OC)c1 (stereo not drawn) | – | – | 14.3% (inactive)
COC(=O)c1ccc(CNc2c(N3CCCC3)c(=O)c2=O)cc1 | – | – | 4.83% (inactive)
COc1cccc(NC(=O)CSc2nc3ccccc3c(=O)[nH]2)c1 | – | – | 4.59% (inactive)
c1ccc(/N=C2\N=C(Nc3ccccn3)c3ccccc32)nc1 | 2.46 | 1.68 | –
Nc1cc(=O)[nH]c(SCC(=O)NC2CCCCC2)n1 | – | – | -0.72% (inactive)
Cc1nc(SCC(=O)NCCC(C)C)[nH]c(=O)c1C | 13.3 | 8.78 | –
CC1CCN(C(=O)CSc2nc3ccccc3c(=O)[nH]2)CC1 | – | – | 8.81% (inactive)
CC(C)NC(=O)CSc1nc2ccccc2c(=O)[nH]1 | 19.3 | 11.5 | –

SMILES | IC90 [1] [µM] | IC50 [1] [µM] | inhibition [2]
O=C(CSc1nc2c(c(=O)[nH]1)CCC2)NC1CCCCC1 | < 0.01 | < 0.01 | –
CC(Sc1nc2ccccc2c(=O)[nH]1)C(=O)NC1CCCCC1 (stereo not drawn) | – | – | 6.58% (inactive)
CCSc1nc2ccccc2c(=O)[nH]1 | – | – | 10.8% (inactive)
O=c1[nH]c(SCc2ccccc2Cl)nc2c1CCCC2 | – | – | 9.5% (inactive)
Cc1cc(=O)[nH]c(=S)[nH]1 | – | – | -3.23% (inactive)
O=C(CSc1ncccn1)NC1CCCCC1 | – | – | 0.1% (inactive)
Cc1ccc(C(=O)N/N=C(/CC(=O)c2cccs2)C(F)(F)F)cc1 | 2.83 | 1.33 | –
Cc1ccc(NC(=O)CSc2nc3ccccc3c(=O)[nH]2)cc1Cl | – | – | 7.6% (inactive)
Cc1nc(SCc2ccccc2Cl)[nH]c(=O)c1C | – | – | 6.97% (inactive)
CC(C)CCNC(=O)CSc1nc2ccccc2c(=O)[nH]1 | 0.21 | < 0.01 | –
Cc1ccc(NC(=O)COC(=O)CCc2c[nH]c3ccccc23)cc1[N+](=O)[O-] | 7.41 | 3.2 | –
Cc1cnc(SCC(=O)NC2CCCCC2)[nH]c1=O | – | – | 3.92% (inactive)
CN(C)C(=O)CSc1nc2ccccc2c(=O)[nH]1 | – | – | 9.4% (inactive)
CNC(=O)CSc1nc2ccccc2c(=O)[nH]1 | 99.1 | > 68.7 | –
Cc1nc(SCC(=O)N(C)c2ccccc2)[nH]c(=O)c1C | – | – | 6.73% (inactive)
CC[N+](C)(CC)CCCCOc1ccc2c(c1)C(=O)c1cc(OCCCC[N+](C)(CC)CC)ccc1-2 | 3.06 | 2.14 | –
NC(=O)CSc1nc2ccccc2c(=O)[nH]1 | – | – | 10.4% (inactive)
CCC(Sc1nc2ccccc2c(=O)[nH]1)C(=O)NC1CCCCC1 (stereo not drawn) | – | – | 3.23% (inactive)
Cc1cc(=O)[nH]c(SCC(=O)NC2CCCCC2)n1 | – | – | -0.61% (inactive)
